# Test results published in paper PMC10060569 (Frontiers in Pharmacology, 2023).
# How the values were obtained:
# 20KVIV23/26N-hP2X1R = biological target: T1, 20KVIV23/26N-hP2X1R (Homo sapiens, UniProt P51575, L23V/M21V/R20K/V22I); assay: TEVC of ATP-induced currents, hP2X1R mutant in X. laevis oocytes (peak current protocol); assay type: cell-based
# T1 construct: expressed in transfected cells; host or cells: Xenopus laevis oocytes (cRNA injection)
# T1 sequence (P51575 1-399 R20K/M21V/V22I/L23V): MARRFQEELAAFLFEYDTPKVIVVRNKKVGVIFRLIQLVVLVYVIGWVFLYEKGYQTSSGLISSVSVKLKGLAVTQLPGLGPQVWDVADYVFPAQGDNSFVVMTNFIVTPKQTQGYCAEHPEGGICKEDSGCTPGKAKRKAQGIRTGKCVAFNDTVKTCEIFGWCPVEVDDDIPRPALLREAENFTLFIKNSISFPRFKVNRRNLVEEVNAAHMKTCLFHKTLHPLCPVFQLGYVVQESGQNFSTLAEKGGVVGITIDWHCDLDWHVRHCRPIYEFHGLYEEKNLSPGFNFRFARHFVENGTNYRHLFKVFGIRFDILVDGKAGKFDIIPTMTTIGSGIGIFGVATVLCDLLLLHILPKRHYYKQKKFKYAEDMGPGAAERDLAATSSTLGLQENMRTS
# Source text: Oocyte expression plasmids encoding the wild-type (wt) and N-terminally His-tagged (His-) fusion constructs of the hP2X2R, hP2X3R, hP2X4R, and hP2X7R, and the mutant His-^20RMVL^23KVIV^23S^26N-hP2X1R, S^15V-rP2X3R, and His-S^15V-hP2X3R were the same as used in previous research ([Hausmann et al., 2006]; [Wolf et al., 2011]; [Hausmann et al., 2014]; [Obrecht et al., 2019]). In most cases, the N-terminal His-tagged variants of P2XRs were used here and in the previous studies to allow biochemical analyses on affinity-purified proteins using the same constructs. Although this was not required for the present study, it allows for better comparability with our previous studies. Capped cRNAs of different P2XRs were already available in the research group or were synthesized as previously described ([Schmalzing et al., 1991]; [Stolz et al., 2015]). cRNA was injected into collagenase-defolliculated X. laevis oocytes in aliquots of 41 nl or 23 nl (see Supplementary Table S1 for the amount of cRNA used for expression of the indicated P2XR) using a Nanoliter 2000 injector (World Precision Instruments, Sarasota, United States of America) as described previously ([Hausmann et al., 2014]; [Stolz et al., 2015]; [Obrecht et al., 2019]). To express the heteromeric hP2X2/3 receptor, cRNAs encoding His-hP2X2R and wt-hP2X3R were coinjected at a ratio (w/w) of 1:6. Oocytes were stored at 19°C in an oocyte ringer solution (ORi^+) containing 90 mM NaCl, 1 mM KCl, 1 mM CaCl2, 1 mM MgCl2, and 10 mM HEPES (Carl Roth, Karlsruhe, Germany) adjusted to pH 7.4 with NaOH and supplemented with 50 μg/ml gentamicin (AppliChem, Darmstadt, Germany). […]
# (§1) Ion currents mediated by P2X receptors were evoked by the indicated concentration of ATP or α,β-meATP and were recorded 1 or 2 days after cRNA injection at ambient temperature at a holding potential of −60 mV by two-electrode voltage clamp (TEVC) as previously described ([Hausmann et al., 2006]). […]
# G189A/S15V-hP2X3R = assay: TEVC of ATP-induced currents, G189A/S15V-hP2X3R mutant in X. laevis oocytes; assay type: cell-based, human; details: ± SEM
# Procedure: Ion currents mediated by P2X receptors were evoked by the indicated concentration of ATP or α,β-meATP and were recorded 1 or 2 days after cRNA injection at ambient temperature at a holding potential of −60 mV by two-electrode voltage clamp (TEVC) as previously described ([Hausmann et al., 2006]). Calcium-free ORi^− solution (90 mM NaCl, 1 mM KCl, 2 mM MgCl2, 10 mM HEPES, pH 7.4) was used to avoid bias due to calcium-activated chloride channels (CaCC) endogenously expressed in X. laevis oocytes ([Miledi, 1982]; [Methfessel et al., 1986]). […]
# In the case of fast-desensitizing P2XR subtypes (P2X1R and P2X3R), ATP is applied five times in repetition, and the ATP-induced current amplitude in the presence (after pre-incubation) of the antagonist (fourth application) is compared to the arithmetic mean of flanking control ATP-induced current amplitudes in the absence of the antagonist (third and fifth ATP application). […] The correction factor was calculated as the ratio of the fourth ATP-induced current amplitude to the third amplitude (Eq. 3) when the experiment was performed in the absence of the antagonist. […] Since the magnitude of the run-down varies from day to day and batch to batch of oocytes, the correction factor was determined on each day of the experiments and was calculated as the arithmetic mean of several recordings (at least 3–5 and on average 5) on each day.
# S15V-rP2X3R = biological target: T2, S15V-rP2X3R (Rattus norvegicus, UniProt P49654, S15V); assay: TEVC of ATP-induced currents, S15V-rP2X3R expressed in X. laevis oocytes (peak current protocol); assay type: cell-based; details: 1 µM ATP
# T2 construct: expressed in transfected cells; host or cells: Xenopus laevis oocytes (cRNA injection)
# T2 sequence (P49654 1-397 S15V): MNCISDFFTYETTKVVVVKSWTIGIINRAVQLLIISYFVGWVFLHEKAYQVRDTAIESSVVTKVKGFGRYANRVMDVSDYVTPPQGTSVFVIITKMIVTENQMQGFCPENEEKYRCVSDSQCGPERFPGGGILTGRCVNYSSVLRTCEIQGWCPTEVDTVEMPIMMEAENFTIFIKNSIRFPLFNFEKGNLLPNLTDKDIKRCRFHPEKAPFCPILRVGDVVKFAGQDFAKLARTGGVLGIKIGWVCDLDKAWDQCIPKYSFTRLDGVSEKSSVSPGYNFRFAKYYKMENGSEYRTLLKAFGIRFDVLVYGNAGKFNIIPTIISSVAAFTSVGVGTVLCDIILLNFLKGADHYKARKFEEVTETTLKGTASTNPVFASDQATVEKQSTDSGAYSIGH
# Source text: Oocyte expression plasmids encoding the wild-type (wt) and N-terminally His-tagged (His-) fusion constructs of the hP2X2R, hP2X3R, hP2X4R, and hP2X7R, and the mutant His-^20RMVL^23KVIV^23S^26N-hP2X1R, S^15V-rP2X3R, and His-S^15V-hP2X3R were the same as used in previous research ([Hausmann et al., 2006]; [Wolf et al., 2011]; [Hausmann et al., 2014]; [Obrecht et al., 2019]). In most cases, the N-terminal His-tagged variants of P2XRs were used here and in the previous studies to allow biochemical analyses on affinity-purified proteins using the same constructs. Although this was not required for the present study, it allows for better comparability with our previous studies. […]
# as §1
SMILES,reversibility of the inhibitory effect (20KVIV23/26N-hP2X1R),"IC50 (20KVIV23/26N-hP2X1R; 1 µM ATP, peak current protocol, X. laevis oocytes) [µM]",inhibition at 1000 µM (20KVIV23/26N-hP2X1R; read-out: Max. inhibition at 1 mM) [%],% inhibition of 10 µM ATP-induced currents by 10 µM diclofenac (G189A/S15V-hP2X3R),IC50 (S15V-rP2X3R; X. laevis oocytes) [µM],inhibitory effect at 100 µM FFA (S15V-rP2X3R; 100 µM FFA) [%]
"O=C(O)Cc1ccccc1Nc1c(Cl)cccc1Cl [Diclofenac, diclofenac]",reversible,338,86.2,6.4% ± 3.0%,–,–
"O=C(O)c1ccccc1Nc1cccc(C(F)(F)F)c1 [Flufenamic acid, flufenamic acid]",–,–,–,–,264,25
